Source: US20070032545A1, “Antibiotic fki-1778 and process for producing the same” (priority 2004, published 2007)

How the values were obtained:
[1] = system: nauplius larva of Artemia salina; experiment: Anti-arthropod activity on nauplius larva in 96-well microplate; assay type: in vivo; details: observed microscopically after 2 days
Method: Next, anti-arthropod activities of antibiotic FKI-1778 10 of the present invention are described hereinbelow. Methanol solution of each antibiotic FKI-1778 was placed in the microplate (96 wells) (Corning Corp., the U.S.). […] The buffer solution 50 μl containing several numbers of nauplius larva of Artemia salina, Arthropod, which was incubated in the buffer solution (Tris 20 mM, sodium chloride 440 mM, magnesium chloride 23 mM, sodium carbonate 1.9 mM, magnesium sulfate 53 mM and calcium chloride 10 mM), was added to each well, and the condition thereof was observed microscopically after 2 days.

[2] = system: human leukemia cell strain Jurkat cell; experiment: Cell cycle G1 phase terminating activity, DNA content by flow cytometer; assay type: cell-based; details: Jurkat cells, 5 μg added to 200 μl medium, 24 hours; for G2/M phase: No addition 22.3; for G1 phase: No addition 53.2
Method: Further, a terminating activity of antibiotic FKI-1778 of the present invention against cell cycle G1 phase in cancer cells is explained as follows. Using 96-well microplate (Corning Corp., the U.S.), human leukemia cell strain Jurkat cell, 5×10^5 cells/well, was inoculated into RPMI 1640 medium (IWAKI Corp., Japan) 200 μl containing a mixture of 10% fetal bovine serum and 1% penicillin (10,000 units/ml)—streptomycin (10 mg/ml) (Invitrogen Inc., the U.S.) and cultured. Antibiotic FKI-1778, 5 μg, was added thereto, and the mixture was incubated at 37° C. for 24 hours under 5% CO2 atmosphere, and the culture supernatant was discarded. Cells were suspended in 0.1% aqueous sodium citrate solution (200 μl) containing 0.002% ribonuclease A (Sigma Corp., the U.S.), 0.005% propidium iodide (Sigma Corp., the U.S.) and 0.3 ml/100 ml IGEPAL-CA-630 (Sigma Corp., the U.S.). After the cell suspension was allowed to stand for 2 hours or more, DNA contents in 10,000 cells were measured by using flow cytometer (FACS Calibur, Becton, Dickinson and Company, the U.S.), then DNA contents of cells in G1 phase, S phase and G2/M phase were measured by using software, Cell Quest (Becton, Dickinson and Company, the U.S.).

[3] = system: various microorganisms; experiment: Growth inhibitory activity against various microorganisms (summary of Table 2); assay type: cell-based; details: result in words
Source text: Next, diameters of inhibition ring of antibiotic FKI-1778A, antibiotic FKI-1778B, antibiotic FKI-1778C and antibiotic FKI-1778D against various microorganisms on the nutrient agar medium are shown in Table 2.

Compound	Anti-arthropod activity [1]	G2/M phase [2]	G1 phase [2]	growth inhibitory activities against various microorganisms [3]
C=C1CCC2C(C)(CC/C=C(\C)C(=O)O)C(OC(C)=O)CCC2(C)C1Cc1c(O)c(C)c(C)oc1=O (stereo not shown) [FKI-1778A]	>200 µg/mL	12.8%	62.4%	no growth inhibitory activities
C=C1CCC2C(C)(CC/C=C(\C)CO)C(OC(C)=O)CCC2(C)C1Cc1c(O)c(C)c(C)oc1=O (stereo not shown) [FKI-1778B]	100 µg/mL	12.0%	55.0%	no growth inhibitory activities
C=C(C)C(O)CCC1(C)C(OC(C)=O)CCC2(C)C(Cc3c(O)c(C)c(C)oc3=O)C(=C)CCC12 (stereo not shown) [FKI-1778C]	>200 µg/mL	13.0%	64.2%	no growth inhibitory activities
C=C1CCC2C(C)(CC/C=C(/C)CO)C(OC(C)=O)CCC2(C)C1Cc1c(O)c(C)c(C)oc1=O (stereo not shown) [FKI-1778D]	100 µg/mL	9.9%	63.9%	no growth inhibitory activities
